The data set deals with Hep G2 human hepatocellular carcinoma cells. Particulars: 24 hours, 0.001 to 100 μM, compared to untreated cells. How it is done: Hep G2 cells were treated for 24 hours with increasing concentrations (0.001 to 100 μM) of Eosin Y, or left untreated (CTL).
Hep G2 cells were treated for 24 hours with increasing concentrations (0.001 to 100 μM) of Erythrosine B, or left untreated (CTL). Staurosporine (STS) was used as a positive control inducing cellular mortality.
The toxicity of the photoactivators Eosin Y and Erythrosine B was evaluated by measuring the cytotoxicity of these compounds on human cells. Hep G2 human hepatocellular carcinoma cells with an epithelial morphology were treated for 24 hours with increasing concentrations (0.001 to 100 μM) of Eosin Y or Erythrosine B, and the cellular survival was evaluated.

`CN[C@@H]1C[C@H]2O[C@@](C)([C@@H]1OC)n1c3ccccc3c3c4c(c5c6ccccc6n2c5c31)C(=O)NC4` [Staurosporine]: the cellular viability result is “caused a dose-dependent effect”.

Source of the values: patent US10758744B2, “Combination of an oxidant and a photoactivator for the wounds” (KLOX TECHNOLOGIES INC., priority 2008, dated 2020).
